What was measured:
[1] = system: human erythroid progenitors (CFU-E, BFU-E); assay: Erythroid CFU assay in human bone marrow cells; assay type: cell-based; conditions: 10 μM, 14 days culture, human bone marrow cells
Method: (§1) Compounds were tested to evaluate the potential effects on human erythroid and myeloid progenitors using colony forming cell assays. Clonogenic progenitors of human erythroid (CFU-E, BFU-E), granulocyte-monocyte (CFU-GM) and multipotential (CFU-GEMM) lineages were assessed in a semi-solid methylcellulose-based media formulation containing rhlL-3 (10 ng/mL), rhGM-SCF (10 ng/mL), rhSCF (50 ng/mL) and Epo (3 U/mL).
(§2) Normal human bone marrow light density cells derived from normal bone marrow (NorCal Biologics, California) and qualified at ReachBio, were stored in the gaseous phase of liquid nitrogen (−152° C.) until required for the assay. On the day of the experiment, the cells were thawed rapidly, the contents of each vial was diluted in 10 mL of Iscove's modified Dulbecco's medium containing 10% fetal bovine serum (IMDM+10% FBS) and washed by centrifugation (approximately 1200 r.p.m. for 10 minutes, room temperature). The supernatant was discarded and the cell pellets resuspended in a known volume of IMDM+10% FBS. A cell count (3% glacial acetic acid) and viability assessment (trypan blue exclusion test) was performed for the bone marrow sample.
(§3) On the day of the experiment, the compounds were dissolved in DMSO to a stock concentration of 10 mM. Serial dilutions were prepared from the stock concentration to achieve concentrations of 2 and 0.4 mM. When added to the methylcellulose-based media at 1:1000 (v/v), the final test concentrations of 10, 2 and 0.4 μM were achieved. Additionally, 5-FU was evaluated at 1.0, 0.1 and 0.01 μg/mL.
(§4) Clonogenic progenitors of the human erythroid (CFU-E and BFU-E) and myeloid (CFU-GM) lineages were set up in the methylcellulose-based media formulations described above. All compounds were added to the medium to give the final desired concentrations (10, 2 and 0.4 μM). 5-Fluorouracil (Sigma Aldrich) was used as a positive control for progenitor proliferation (inhibition of colony growth) and was introduced to the human bone marrow cultures at 1.0, 0.1, and 0.01 μg/mL. Solvent control cultures (containing no compound but 0.1% DMSO) as well as standard controls (containing no compound and no DMSO) were also initiated.
(§5) Human myeloid and erythroid progenitor assays were initiated at 2.0×10^4 cells per culture. Following 14 days in culture, myeloid and erythroid colonies were assessed microscopically and scored by trained personnel. The colonies were divided into the following categories based on size and morphology: CFU-E, BFU-E, CFU-GM and CFU-GEMM.
(§6) The mean±one standard deviation of three replicate cultures was calculated for progenitors of each category (CFU-E, BFU-E, etc.). Two-tailed t-tests were performed to assess if there was a difference in the number of colonies generated between solvent control and treated cultures. Due to the potential subjectivity of colony enumeration, a p value of less than 0.01 is deemed significant. To calculate the concentration of 50% inhibition of colony growth (IC50) for each compound, a dose response curve was generated plotting the log of the compound concentration versus the percentage of control colony growth using XLfit software (IDBS). The concentration of 50% inhibition of colony growth (IC50) was calculated based on the sigmoid curve fit using Dose-Response, One-Site Model formula: y=A+[(B−A)/(1+((C/x)^D))], where A=the initial value (baseline response), B=maximum response, C=center (drug concentration that provokes a response halfway between A and B) and D=slope of the curve at midpoint. Further, plots and additional dose response curves were generated using GraphPad Prism 7.0.
(§7) Erythroid (CFU-E and BFU-E), myeloid (CFU-GM) and multi-potential (CFU-GEMM) colony enumeration was performed by trained personnel. The distribution of colony types as well as general colony and cellular morphology was analyzed. For statistical analysis colony numbers in compound treated cultures were compared to the solvent control cultures. […]

[2] = system: human myeloid progenitors (CFU-GM); assay: Myeloid CFU assay in human bone marrow cells; assay type: cell-based; conditions: 10 μM, 14 days culture, human bone marrow cells
Method: as §1, §2, §3, §4, §5, §6, §7

HDAC2 [3] = biological target: T1, HDAC2 (Homo sapiens, UniProt Q92769); assay: HDAC2 enzymatic inhibition assay in SY5Y cell lysate with HDAC-Glo2 substrate; assay type: cell-based; parameters: host or cells: SH-SY5Y; conditions: SH-SY5Y cells, 5 h compound incubation, HDAC-Glo 2 reagent
Method: HDAC2 Enzymatic Inhibition Assay in SY5Y Cell Lysate with HDAC-Glo2 Substrate
SH-SY5Y cells (Sigma) were cultured in Eagle's Modified Essential Medium supplemented with 10% fetal bovine serum and pen/strep. Twenty-four hours prior to compound dosing 20 uL of cells were plated in white 384 well plates at a density of 1,500 cells/well. Compounds were serially diluted in neat DMSO and then diluted 1:100 v/v into media without FBS and mixed. Media was removed from the plated cells and the diluted compounds in serum free media (1% v/v final DMSO) were added and incubated at 37.0 for five hours. Ten uL of HDAC-Glo 2 reagent with 0.1% Triton X-100 was then added, the plate was mixed and allowed to develop at room temperature for 100 minutes. Plates were then read with a Spectramax LMax luminometer employing a 0.4 s integration time. Dose response curves were constructed with normalized data where CI-994 at 100 uM was defined as 100% inhibition and DMSO alone as 0% inhibition.

HDAC2 [4] = biological target: T1, HDAC2; assay: HDAC2 recombinant enzymatic assay; assay type: biochemical; parameters: purchased BPS Bioscience; conditions: 5 h pre-incubation, 5 nM enzyme; read-out: HDAC recombinant enzymatic IC50 HDAC2
Method: The following describes an assay protocol for measuring the deacetylation of a peptide substrate by the enzymes HDAC2 or HDAC1.
All recombinant human HDACs were purchased from BPS Bioscience. The substrate, FAM-TSRHK(AC)KL-CONH, was synthesized at NanoSyn. Final assay reactions contained 100 mM HEPES (pH 7.5), 50 mM KCl, 0.1% BSA, 0.01% Triton X-100, 1% DMSO, 1 uM substrate and 5 nM HDAC enzyme. Enzyme and compounds were pre-incubated at 25° C. for 5 hours and reactions were initiated by addition of substrate. 10 uL reactions were incubated for 17 hours at 25° C. and terminated by the addition of 40 uL of buffer containing 100 mM HEPES (pH 7.5), 0.1% BSA, 0.01% Triton X-100 and 0.05% SDS. Substrate and product peptides present in each sample were separated electrophoretically using the LabChip 3000 capillary electrophoresis instrument. Change in the relative fluorescence intensity of the substrate and product peaks reflects enzyme activity. Reaction progress was determined as the product to sum ratio (PSR):P/(S+P), where P is the peak height of the product peptide and S is the peak height of the substrate peptide. Reactions were performed in duplicate at 12 concentrations, (3× serial dilutions starting at 30 uM). IC50 values were calculated using a 4 Parameter Logistic Model.

T1 sequence (Q92769 whole entry): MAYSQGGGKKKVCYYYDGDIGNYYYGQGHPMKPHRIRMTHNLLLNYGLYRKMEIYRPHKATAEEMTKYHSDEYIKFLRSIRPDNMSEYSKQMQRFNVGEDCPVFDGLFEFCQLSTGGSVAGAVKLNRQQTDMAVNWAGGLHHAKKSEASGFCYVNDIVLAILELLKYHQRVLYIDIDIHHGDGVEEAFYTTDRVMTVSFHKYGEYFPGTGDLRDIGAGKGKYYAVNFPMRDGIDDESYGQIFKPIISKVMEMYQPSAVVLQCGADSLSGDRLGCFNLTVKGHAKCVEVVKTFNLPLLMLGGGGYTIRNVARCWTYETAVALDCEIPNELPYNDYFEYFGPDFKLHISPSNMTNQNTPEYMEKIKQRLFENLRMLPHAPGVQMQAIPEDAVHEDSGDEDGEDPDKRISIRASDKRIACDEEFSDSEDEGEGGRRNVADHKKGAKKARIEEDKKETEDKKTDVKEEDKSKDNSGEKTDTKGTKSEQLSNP

| CFU % Control remaining @ 10 μM Erythroid [1] | CFU % Control remaining @ 10 μM Myeloid [2] | IC50 (HDAC2 [3]) | IC50 (HDAC2 [4]) | Compound |
| --- | --- | --- | --- | --- |
| 0% | 0% | 0.369 µM | 0.142 µM | Nc1ccc(-c2ccc(F)cc2)cc1NC(=O)N1Cc2nccnc2C1 [Comparator A] |
| 9% | 25% | 0.485 µM | 0.475 µM | Nc1ccc(-c2ccc(F)cc2)nc1NC(=O)N1Cc2nccnc2C1 [Comparator B] |
| 20% | 20% | 0.279 µM | 0.301 µM | Nc1ccc(-c2cccs2)nc1NC(=O)N1Cc2nccnc2C1 [Comparator C] |
| 47% | 84% | 0.331 µM | 0.627 µM | Nc1ccc(-c2ccc(F)cc2)nc1NC(=O)N1Cc2cncnc2C1 [Comparator D] |
| 54% | 83% | 0.278 µM | 0.511 µM | Nc1ccc(-c2cccs2)nc1NC(=O)N1Cc2cncnc2C1 [Comparator E] |
| 57% | 86% | 0.777 µM | 0.51 µM | COCc1cc2c(cn1)CN(C(=O)Nc1nc(-c3ccc(F)cc3F)ccc1N)C2 [Compound 1] |
| 27% | 59% | 0.577 µM | – | Cc1ncc2c(n1)CN(C(=O)Nc1nc(-c3cccs3)ccc1N)C2 [Compound 2] |
